{"source": "patent EP3595655B1", "about": "“THERAPEUTIC DOSAGE AND REGIMEN FOR MELATONIN” (Chiesi Farmaceutici S.p.A., priority 2017, dated 2018)", "key": {"[1]": {"tested_on": "newborn piglets", "details": "intravenous 5 mg/kg/h over six hours (30 mg/kg), 10 minutes after resuscitation; cited from earlier work"}, "[2]": {"test": "Plasma melatonin levels in piglets (direct radioimmunoassay)", "type": "in vivo", "details": "melatonin-treated piglets; therapeutic range from Robertson et al. 2013"}, "[3]": {"tested_on": "piglet model of neonatal asphyxia", "details": "for NTP/epp (whole forebrain, 9.4T MRS): 24h after hypoxia-ischaemia, melatonin 15 mg/kg i.v. over 6h at 2h and 26h plus cooling, p=0.038; for cell death (TUNEL positive cells) in the sensorimotor cortex: p<0.003, p=0.003 (Fig. 4)", "procedure": "Objective: To assess neuroprotection of intravenous melatonin (15 mg/kg) infused slowly over 6h (2.5 mg/kg/h) initiated 2 h after hypoxia-ischaemia in a piglet model of neonatal asphyxia (Fig. 1). Primary outcome measures were TUNEL immuno-labelling of cell death over 9 brain regions (Fig. 2). Secondary outcomes were amplitude-integrated electroencephalography(aEEG) recovery, and magnetic resonance spectroscopy (MRS) biomarkers (NTP/epp and lactate/N acetyl aspartate).\nDuring hypoxia-ischemia the β-NTP peak height was continuously monitored using in-house Matlab (Mathworks) software. At the point at which β-NTP had fallen to 50% of its baseline value, FiO2 was increased to 9%. […] The head was immobilized in a stereotactic frame for MRS acquisition. […] After surgical preparation, multichannel six-lead EEG monitoring (Nicolet, Care Fusion, Wisconsin, USA) was acquired at baseline and throughout the periods between MRS data acquisitions. Filtered amplitude-integrated EEG recordings were classified according to the pattern classification. A score of 0 was flat trace; 1, continuous low voltage; 2, burst suppression; 3, discontinuous normal voltage; and 4, continuous normal voltage, at baseline and then every hour after hypoxia-ischemia. […] Blood samples were collected in lithium/heparin tubes and centrifuged immediately after collection. Plasma was separated and then stored at - 20°C before analysis. Melatonin was routinely measured by direct radioimmunoassay."}, "[4]": {"test": "Solubilisation of melatonin with Captisol, with or without PEG, in different vehicles", "type": "physicochemical", "details": "Captisol solutions in WFI, glucose 10% solution or phosphate buffer", "method": "The first set of experiments was aimed to assess the possibility to solubilise melatonin with different quantity of sulfobutylether-β-cyclodextrin (Captisol™). The test was performed by the addition of melatonin. In the solution containing the Captisol at different concentrations up to presence of undissolved material on the bottom; the solution was filtered and analysed. These tests were performed with three different vehicles: water for injection (WFI), glucose 10% solution and phosphate buffer. In a second set of experiments, PEG with different molecular weights (PEG 300 and PEG 400) was added to verify the possibility to reduce the amount of Captisol used for the dissolution. The results of the first set of experiments, were obtained measuring the assay in formulation at the higher solubility limits having on the bottom some undissolved particles. […] Captisol concentration of 5% was identified as a suitable one, and confirmed by the other results."}, "[5]": {"tested_on": "rat organotypic hippocampal slice cultures", "test": "Oxygen-glucose deprivation (OGD) in organotypic hippocampal slice cultures, cell death by propidium iodide incorporation", "type": "cell-based", "details": "for Cell death, estimated by propidium iodide incorporation, induced by OGD: OGD alone 90.8 ± 7.6%", "source_text": "Concentration-response studies were aimed at detecting the range of concentration of melatonin resulting in neuroprotection against oxygen-glucose deprivation (OGD), an experimental model simulating hypoxia-ischemia and reperfusion. Ischemia was simulated in vitro by anoxia combined with a glucose-free media (OGD) in rat organotypic hippocampal slice cultures."}}, "note": "Entries after “also recorded” stand apart in the source; their conditions may differ. Read-outs that look alike come from different tables or passages of the source."}
{"smiles": "COc1ccc2[nH]cc(CCNC(C)=O)c2c1", "note": "[melatonin, N-[2-(5-Methoxy-1H-indol-3-yl)ethyl] acetamide]", "values": [{"measurement": "hypothermic neuroprotection", "setting": "[1]", "result": "increases hypothermic neuroprotection"}, {"measurement": "plasma levels", "setting": "[2]", "result": "within the expected therapeutic range"}, {"measurement": "3T MRS: NTP/epp and PCr/Pi in whole forebrain, Lac/NAA in thalamus and white matter", "setting": "[3]; 24 and 48h after hypoxia-ischaemia", "result": "no difference in any ratio"}, {"measurement": "NTP/epp (whole forebrain, 9.4T MRS)", "setting": "[3]; versus vehicle", "result": "ameliorated the NTP/ePP decline"}, {"measurement": "NTP/epp (whole forebrain, 9.4T MRS)", "setting": "[3]; versus vehicle, listed as Melatonin", "result": "higher"}, {"measurement": "9.4T MRS: NTP/epp and PCr/Pi in whole forebrain, Lac/NAA in thalamus and white matter", "setting": "[3]; baseline, 24 and 48h after hypoxia-ischaemia, melatonin 5 and 15 mg/kg groups versus vehicle, apart from 24h NTP/epp", "result": "no difference"}, {"measurement": "group mean hourly aEEG scores", "setting": "[3]; between groups at any time point", "result": "no difference"}, {"measurement": "brain protection", "setting": "[3]; melatonin 5 mg/kg/24h i.v. over 6h started 2h after hypoxia-ischaemia plus cooling", "result": "no protection"}, {"measurement": "cell death (TUNEL positive cells) in the sensorimotor cortex", "setting": "[3]; melatonin 15 mg/kg/24h i.v. over 6h started 2h after hypoxia-ischaemia plus cooling, versus vehicle, 48h", "result": "significant protection; also recorded: significant reduction in TUNEL positive cells"}, {"measurement": "cell death (TUNEL positive cells) in the sensorimotor cortex", "setting": "[3]; melatonin 15 mg/kg/24h i.v. over 6h started 2h after hypoxia-ischaemia plus cooling, versus vehicle, 48h, listed as Melatonin", "result": "reduced cell death"}, {"measurement": "cell death (TUNEL positive cells) across the whole brain", "setting": "[3]; melatonin 15 mg/kg/24h i.v. over 6h started 2h after hypoxia-ischaemia plus cooling, versus vehicle, 48h, p=0.068, p=0.069 (Fig. 4)", "result": "trend of reduced cell death; also recorded: trend to overall brain reduced TUNEL positive cells; also recorded: trend towards reduced TUNEL positive cells"}, {"measurement": "physiological parameters monitored, including mean arterial pressure and inotrope use", "setting": "[3]; piglets, melatonin i.v. infusion plus cooling", "result": "did not affect"}, {"measurement": "influence of glucose or buffer as vehicle on solubility", "setting": "[4]", "result": "does not influence the solubility"}, {"measurement": "Cell death, estimated by propidium iodide incorporation, induced by OGD", "setting": "[5]; 3 µM melatonin", "result": "57.6 ± 6.9", "unit": "%"}, {"measurement": "Cell death, estimated by propidium iodide incorporation, induced by OGD", "setting": "[5]; 10 µM melatonin", "result": "60.9 ± 7.4", "unit": "%"}, {"measurement": "Cell death, estimated by propidium iodide incorporation, induced by OGD", "setting": "[5]; 25 µM melatonin", "result": "47.3 ± 3.8", "unit": "%"}, {"measurement": "Cell death, estimated by propidium iodide incorporation, induced by OGD", "setting": "[5]; 50 µM melatonin", "result": "38.9 ± 4.2", "unit": "%"}, {"measurement": "statistical analysis of the effect on OGD-induced cell death", "setting": "[5]; all doses tested with the exception of 1 uM, p<0.01 Dunnet's test after ANOVA", "result": "significant effect"}, {"measurement": "reduction of OGD-induced cell death", "setting": "[5]; hippocampal slice cultures of neonatal rats, 1-50 µM", "result": "concentration-dependent manner"}]}
